In ChEMBL document CHEMBL5241098, “Progress in the development of small molecular inhibitors of the Bruton's tyrosine kinase (BTK) as a promising cancer therapy” (Bioorg Med Chem, 2021):

What was measured:
[1] = Inhibition of CDK2/Cyclin E (unknown origin) in the presence of ATP; set-up: species or system Homo sapiens
[2] = target: T1, Protein cereblon/Tyrosine-protein kinase BTK (Homo sapiens, UniProt Q06187+Q96SW2); test: PROTAC activity at CRBN/BTK in human NAMALVA cells assessed as decrease in BTK level incubated for 24 hrs by Western blot analysis; type: cell-based
Target sequence in this assay (Q06187 whole entry): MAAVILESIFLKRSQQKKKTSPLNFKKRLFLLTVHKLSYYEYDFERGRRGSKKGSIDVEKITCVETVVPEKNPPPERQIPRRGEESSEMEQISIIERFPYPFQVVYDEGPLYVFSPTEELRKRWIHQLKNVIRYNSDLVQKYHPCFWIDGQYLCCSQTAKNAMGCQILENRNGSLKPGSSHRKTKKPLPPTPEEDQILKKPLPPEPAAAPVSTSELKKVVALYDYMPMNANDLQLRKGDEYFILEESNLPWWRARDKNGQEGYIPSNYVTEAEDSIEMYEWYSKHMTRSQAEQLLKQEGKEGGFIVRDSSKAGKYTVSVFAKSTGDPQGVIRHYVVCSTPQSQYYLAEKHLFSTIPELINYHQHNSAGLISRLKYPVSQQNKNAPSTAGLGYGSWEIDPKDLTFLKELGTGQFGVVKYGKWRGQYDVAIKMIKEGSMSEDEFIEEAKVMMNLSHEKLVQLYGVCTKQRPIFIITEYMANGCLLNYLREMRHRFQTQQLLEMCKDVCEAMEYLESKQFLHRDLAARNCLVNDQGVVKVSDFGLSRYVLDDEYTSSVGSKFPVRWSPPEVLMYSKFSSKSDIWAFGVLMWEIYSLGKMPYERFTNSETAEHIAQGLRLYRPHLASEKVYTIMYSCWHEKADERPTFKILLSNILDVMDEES
Target sequence in this assay (Q96SW2 whole entry): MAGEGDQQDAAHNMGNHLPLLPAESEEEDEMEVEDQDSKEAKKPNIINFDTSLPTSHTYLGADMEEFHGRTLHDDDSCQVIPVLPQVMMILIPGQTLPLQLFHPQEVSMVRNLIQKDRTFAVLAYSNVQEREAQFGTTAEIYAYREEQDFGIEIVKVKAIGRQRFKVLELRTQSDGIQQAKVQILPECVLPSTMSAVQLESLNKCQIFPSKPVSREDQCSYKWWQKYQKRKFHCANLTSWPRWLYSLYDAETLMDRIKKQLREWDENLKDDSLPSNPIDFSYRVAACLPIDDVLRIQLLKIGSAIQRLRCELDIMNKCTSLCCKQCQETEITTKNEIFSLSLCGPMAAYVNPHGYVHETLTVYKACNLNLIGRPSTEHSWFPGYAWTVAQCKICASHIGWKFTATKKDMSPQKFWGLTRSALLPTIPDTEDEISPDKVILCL

[3] = target: T1, Protein cereblon/Tyrosine-protein kinase BTK; test: PROTAC activity at CRBN/BTK in human NAMALVA cells assessed as decrease in BTK level by measuring maximal efficacy incubated for 24 hrs by Western blot analysis relative to control; type: cell-based
Target sequence in this assay (Q06187 2-659 limits assumed): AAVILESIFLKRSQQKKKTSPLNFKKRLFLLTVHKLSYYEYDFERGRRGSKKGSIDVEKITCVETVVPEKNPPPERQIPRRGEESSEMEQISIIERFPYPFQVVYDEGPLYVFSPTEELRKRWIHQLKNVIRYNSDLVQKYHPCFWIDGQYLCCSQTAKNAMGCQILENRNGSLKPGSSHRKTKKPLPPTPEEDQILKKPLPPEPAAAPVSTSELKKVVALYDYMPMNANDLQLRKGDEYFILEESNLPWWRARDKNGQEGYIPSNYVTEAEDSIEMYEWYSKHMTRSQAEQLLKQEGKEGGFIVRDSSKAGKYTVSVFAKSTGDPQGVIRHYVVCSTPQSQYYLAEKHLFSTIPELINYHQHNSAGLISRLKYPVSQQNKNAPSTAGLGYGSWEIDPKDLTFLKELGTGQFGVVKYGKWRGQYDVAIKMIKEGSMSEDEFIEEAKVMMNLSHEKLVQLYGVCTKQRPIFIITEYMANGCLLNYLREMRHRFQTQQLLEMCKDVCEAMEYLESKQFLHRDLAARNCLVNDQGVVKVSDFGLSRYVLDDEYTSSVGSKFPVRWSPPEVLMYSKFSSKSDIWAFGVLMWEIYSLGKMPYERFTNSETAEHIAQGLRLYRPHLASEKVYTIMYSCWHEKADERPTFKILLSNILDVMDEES
Target sequence in this assay (Q96SW2 whole entry partner): as the sequence (Q96SW2 whole entry) above

[4] = target: T2, Tyrosine-protein kinase BTK (Homo sapiens, UniProt Q06187); test: Inhibition of BTK (unknown origin) in the presence of ATP
[5] = target: T2, Tyrosine-protein kinase BTK; test: Inhibition of BTK (unknown origin) incubated for 40 mins in the presence of ATP by scintillation based radiometric protein kinase assay
[6] = Antiproliferative activity against human MINO cells assessed as reduction in cell viability incubated for 72 hrs by CellTiter Glo luminescence assay
[7] = test system: JeKo-1; test: Antiproliferative activity against BTK knockout human JeKo-1 cells assessed as reduction in cell viability incubated for 72 hrs by CellTiter Glo luminescence assay; settings: JeKo-1, 72 h
[8] = test system: Z-138; test: Antiproliferative activity against human Z138 cells assessed as reduction in cell viability incubated for 72 hrs by CellTiter Glo luminescence assay; settings: Z-138, 72 h
[9] = test system: Maver1; test: Antiproliferative activity against human MAVER-1 cells assessed as reduction in cell viability incubated for 72 hrs by CellTiter Glo luminescence assay; settings: Maver1, 72 h
[10] = test system: Raji; test: Antiproliferative activity against human Raji cells assessed as reduction in cell viability incubated for 72 hrs by CCK-8 assay
[11] = test system: Ramos; test: Antiproliferative activity against human Ramos cells assessed as reduction in cell viability incubated for 72 hrs by CCK-8 assay
[12] = test system: NAMALVA; test: Antiproliferative activity against human NAMALVA cells assessed as reduction in cell viability incubated for 72 hrs by CCK-8 assay
[13] = target: T2, Tyrosine-protein kinase BTK; test: Inhibition of BTK (unknown origin)
[14] = test system: OCI-Ly7; test: Growth inhibition of human OCILY7 cells; type: functional
[15] = target: Tyrosine-protein kinase Lck (Homo sapiens, UniProt P06239); test: Inhibition of LCK (unknown origin)
[16] = target: T3, Tyrosine-protein kinase JAK3 (Homo sapiens, UniProt P52333); test: Inhibition of JAK3 (unknown origin)
T3 sequence (P52333 whole entry): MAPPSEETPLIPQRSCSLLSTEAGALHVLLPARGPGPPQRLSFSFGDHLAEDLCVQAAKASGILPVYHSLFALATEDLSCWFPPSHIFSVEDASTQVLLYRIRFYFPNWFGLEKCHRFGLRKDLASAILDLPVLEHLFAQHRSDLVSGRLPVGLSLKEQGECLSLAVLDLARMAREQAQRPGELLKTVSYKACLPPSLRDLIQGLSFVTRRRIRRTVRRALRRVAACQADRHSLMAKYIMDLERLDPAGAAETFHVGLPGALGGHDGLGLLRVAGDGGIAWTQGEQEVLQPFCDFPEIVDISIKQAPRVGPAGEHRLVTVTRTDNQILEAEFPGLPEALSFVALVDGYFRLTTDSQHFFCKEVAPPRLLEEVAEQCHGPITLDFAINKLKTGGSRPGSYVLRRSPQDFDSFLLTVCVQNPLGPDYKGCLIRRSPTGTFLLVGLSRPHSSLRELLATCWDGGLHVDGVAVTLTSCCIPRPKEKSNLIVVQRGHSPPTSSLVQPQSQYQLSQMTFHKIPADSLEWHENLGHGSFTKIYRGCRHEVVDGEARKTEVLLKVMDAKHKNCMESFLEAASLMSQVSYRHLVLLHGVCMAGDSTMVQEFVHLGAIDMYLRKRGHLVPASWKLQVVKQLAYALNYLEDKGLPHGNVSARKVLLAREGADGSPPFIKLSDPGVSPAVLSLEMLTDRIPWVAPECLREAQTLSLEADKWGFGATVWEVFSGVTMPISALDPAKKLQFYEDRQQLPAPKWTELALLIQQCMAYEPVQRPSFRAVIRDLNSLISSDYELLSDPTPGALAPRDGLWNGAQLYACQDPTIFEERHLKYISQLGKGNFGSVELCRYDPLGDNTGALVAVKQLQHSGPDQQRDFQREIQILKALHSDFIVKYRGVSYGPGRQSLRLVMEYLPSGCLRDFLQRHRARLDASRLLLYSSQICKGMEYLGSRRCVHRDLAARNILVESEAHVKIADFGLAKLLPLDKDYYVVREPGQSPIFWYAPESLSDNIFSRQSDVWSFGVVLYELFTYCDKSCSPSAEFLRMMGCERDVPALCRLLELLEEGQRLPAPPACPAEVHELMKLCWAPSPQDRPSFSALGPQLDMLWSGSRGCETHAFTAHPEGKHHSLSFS

[17] = target: Epidermal growth factor receptor (Homo sapiens, UniProt P00533); test: Inhibition of EGFR (unknown origin)
[18] = test system: U2932; test: Growth inhibition of human U2932 cells; type: functional
[19] = test system: Ramos; test: Growth inhibition of human Ramos cells; type: functional
[20] = target: T2, Tyrosine-protein kinase BTK; test: Competitive inhibition of recombinant human BTK incubated for 10 mins in the presence of ATP by mobility shift assay
[21] = test system: OCI-Ly10; test: Antiproliferative activity against human OCILY10 cells assessed as inhibition of cell growth
[22] = Antiproliferative activity against human MINO cells assessed as inhibition of cell growth
[23] = test system: A549; test: Antiproliferative activity against human A549 cells assessed as inhibition of cell growth
[24] = target: T1, Protein cereblon/Tyrosine-protein kinase BTK; test: PROTAC activity at CRBN/BTK in human MINO cells assessed as decrease in BTK level incubated for 24 hrs by Western blot analysis; type: cell-based
Target sequence in this assay (Q06187 whole entry): as the sequence (Q06187 whole entry) above
Target sequence in this assay (Q96SW2 whole entry): as the sequence (Q96SW2 whole entry) above

[25] = target: T1, Protein cereblon/Tyrosine-protein kinase BTK; test: PROTAC activity at CRBN/BTK in human MINO cells assessed as decrease in BTK level by measuring maximal efficacy incubated for 24 hrs by Western blot analysis relative to control; type: cell-based
Target sequence in this assay (Q06187 2-659 limits assumed): as the sequence (Q06187 2-659 limits assumed) above
Target sequence in this assay (Q96SW2 whole entry partner): as the sequence (Q96SW2 whole entry) above

T2 sequence (Q06187 whole entry): as the sequence (Q06187 whole entry) above
Sequence of Tyrosine-protein kinase Lck (P06239 whole entry): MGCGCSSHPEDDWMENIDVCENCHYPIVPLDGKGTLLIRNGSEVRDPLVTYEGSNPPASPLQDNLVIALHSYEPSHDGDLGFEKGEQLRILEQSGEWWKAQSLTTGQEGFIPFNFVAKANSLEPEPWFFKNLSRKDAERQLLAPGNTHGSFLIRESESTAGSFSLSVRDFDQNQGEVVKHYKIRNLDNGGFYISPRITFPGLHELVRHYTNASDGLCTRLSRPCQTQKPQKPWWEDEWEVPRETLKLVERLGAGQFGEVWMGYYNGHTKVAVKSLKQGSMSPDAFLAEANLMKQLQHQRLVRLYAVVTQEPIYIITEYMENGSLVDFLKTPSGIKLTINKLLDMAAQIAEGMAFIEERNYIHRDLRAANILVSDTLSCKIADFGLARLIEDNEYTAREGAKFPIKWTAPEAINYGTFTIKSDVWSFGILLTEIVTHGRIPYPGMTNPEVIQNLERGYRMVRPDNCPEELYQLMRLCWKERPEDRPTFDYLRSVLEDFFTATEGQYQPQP
Sequence of Epidermal growth factor receptor (P00533 whole entry): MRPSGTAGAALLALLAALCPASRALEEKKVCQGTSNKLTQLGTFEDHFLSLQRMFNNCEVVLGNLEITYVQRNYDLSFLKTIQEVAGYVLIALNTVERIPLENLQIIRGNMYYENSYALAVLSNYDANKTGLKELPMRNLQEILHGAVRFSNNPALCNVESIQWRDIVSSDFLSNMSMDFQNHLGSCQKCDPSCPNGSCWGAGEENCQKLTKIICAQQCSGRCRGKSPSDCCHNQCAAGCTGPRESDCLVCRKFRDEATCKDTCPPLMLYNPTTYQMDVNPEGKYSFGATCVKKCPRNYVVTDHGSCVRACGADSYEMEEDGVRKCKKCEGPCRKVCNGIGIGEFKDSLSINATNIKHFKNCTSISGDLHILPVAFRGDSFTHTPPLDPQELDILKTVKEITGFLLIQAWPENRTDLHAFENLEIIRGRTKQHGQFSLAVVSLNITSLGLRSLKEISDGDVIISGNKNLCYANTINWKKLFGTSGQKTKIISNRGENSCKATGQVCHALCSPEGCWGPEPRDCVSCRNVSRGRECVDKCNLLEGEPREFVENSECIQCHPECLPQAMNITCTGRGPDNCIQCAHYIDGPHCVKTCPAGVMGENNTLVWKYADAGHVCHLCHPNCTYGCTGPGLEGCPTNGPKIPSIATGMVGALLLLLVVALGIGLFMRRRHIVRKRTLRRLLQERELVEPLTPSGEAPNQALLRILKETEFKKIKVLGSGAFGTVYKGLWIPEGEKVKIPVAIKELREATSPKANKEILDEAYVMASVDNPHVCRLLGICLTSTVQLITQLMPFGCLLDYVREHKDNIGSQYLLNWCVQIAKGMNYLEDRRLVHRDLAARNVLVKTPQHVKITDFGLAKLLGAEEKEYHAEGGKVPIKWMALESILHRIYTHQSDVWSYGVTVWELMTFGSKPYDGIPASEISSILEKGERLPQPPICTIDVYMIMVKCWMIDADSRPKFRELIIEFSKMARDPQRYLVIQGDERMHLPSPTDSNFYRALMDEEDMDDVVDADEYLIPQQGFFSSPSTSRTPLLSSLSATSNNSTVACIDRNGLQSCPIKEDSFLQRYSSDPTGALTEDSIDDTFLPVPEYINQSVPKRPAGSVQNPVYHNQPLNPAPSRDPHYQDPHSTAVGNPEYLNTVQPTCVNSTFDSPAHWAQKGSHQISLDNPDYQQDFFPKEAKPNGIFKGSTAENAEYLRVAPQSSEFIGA

CN1CCN(c2ccc(Nc3nc(Nc4ccc(F)c(F)c4)c4ncn(CC5CC5)c4n3)cc2)CC1
IC50 [1]: 18500 nM

Nc1ncnc2c1c(-c1ccc(Oc3ccccc3)cc1)nn2C1CCN(CCOCCOCC(=O)Nc2ccc3c(c2)C(=O)N(C2CCC(=O)NC2=O)C3=O)CC1 (centres undefined)
EC50 [2]: 6.2 nM | Emax [3]: > 99%

CN1CCN(c2ccc(Nc3nc(Nc4ccccc4)c4ncn(CC5CC5)c4n3)cc2)CC1
IC50 [4]: 900 nM

CN1CCN(c2ccc(Nc3nc(Nc4ccc(F)cc4)c4ncn(CC5CC5)c4n3)cc2)CC1
IC50 [4]: 1300 nM

Nc1ncnc2c1c(-c1ccc(Oc3ccccc3)cc1)nn2Cc1ccccc1F
IC50 [5]: 39 nM | IC50 [6]: 11100 nM | IC50 [7]: 32900 nM | IC50 [8]: 43700 nM | IC50 [9]: 34300 nM

C=CC(=O)Nc1cccc(Nc2nc(Nc3ccc(Cn4cc(C)nc4CC)cc3)ncc2F)c1
IC50 [10]: 4370 nM | IC50 [11]: 9250 nM | IC50 [12]: 4950 nM

Nc1ncnc2c1c(-c1ccc(Oc3ccccc3)nc1)nn2C1CCCN(C(=O)CCl)C1 (centres undefined)
IC50 [7]: 400 nM | IC50 [9]: 400 nM

C=CC(=O)NCC(=O)Nc1ncc(NC(=O)c2cc(C)cc(NC(=O)c3cccc(C)c3)c2)cn1
IC50 [13]: < 5 nM | GI50 [14]: 220 nM

O=C(c1ccc(Oc2ccccc2)cc1Cl)c1c[nH]c2ncnc(NC3CC[C@@H](CO)OC3)c12 (some centres undefined)
IC50 [15]: 3.9 nM

C=CC(=O)N1CCc2ccc(N3C(=O)CCc4cnc5ccc(-c6cnn(C)c6)cc5c43)cc21
IC50 [13]: 6.59 nM | IC50 [16]: 5180 nM | IC50 [17]: 4310 nM | GI50 [18]: 200 nM | GI50 [19]: 370 nM

C=C(Cl)C(=O)N1CCC(n2nc(-c3ccc(Oc4ccccc4)cc3)c3c(N)ncnc32)CC1
IC50 [20]: 2.5 nM | IC50 [21]: 200 nM | IC50 [22]: 560 nM | IC50 [23]: 3890 nM

C#C/C(=C\C(C)(C)CCCCOCCOCCOCCOCCOc1cccc2c1C(=O)N(C1CCC(=O)NC1=O)C2=O)C(=O)N1CCCC(n2nc(-c3ccc(Oc4ccccc4)cc3)c3c(N)ncnc32)C1 (centres undefined)
EC50 [24]: 10 nM | Emax [25]: 90%
